Target: T1, Heparanase (Homo sapiens, UniProt Q9Y251)
T1 sequence (Q9Y251 whole entry): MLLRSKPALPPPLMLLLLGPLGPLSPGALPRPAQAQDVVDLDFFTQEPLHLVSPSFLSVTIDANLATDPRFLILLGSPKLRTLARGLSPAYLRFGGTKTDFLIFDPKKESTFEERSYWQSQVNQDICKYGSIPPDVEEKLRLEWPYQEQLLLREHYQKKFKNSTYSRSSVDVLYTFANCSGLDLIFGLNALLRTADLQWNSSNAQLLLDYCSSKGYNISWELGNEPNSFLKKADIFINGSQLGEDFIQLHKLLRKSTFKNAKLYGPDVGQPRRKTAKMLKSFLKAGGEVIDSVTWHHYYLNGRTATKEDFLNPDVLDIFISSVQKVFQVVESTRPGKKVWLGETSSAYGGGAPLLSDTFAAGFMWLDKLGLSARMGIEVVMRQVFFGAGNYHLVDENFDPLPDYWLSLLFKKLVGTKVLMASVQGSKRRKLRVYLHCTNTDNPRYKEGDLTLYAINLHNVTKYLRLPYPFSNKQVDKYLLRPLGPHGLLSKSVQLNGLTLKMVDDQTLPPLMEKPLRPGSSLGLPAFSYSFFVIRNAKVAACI
Assay: Inhibition of recombinant HPSE (unknown origin) using fondaparinux as substrate incubated for 3 hrs in absence of light by WST1 assay

SMILES: CC(=O)N[C@H]1[C@@H](O[C@@H](CO)C(O[C@H](O)CO)C(=O)O)O[C@H](CO)[C@@H](O[C@@H]2OC(C(=O)O)[C@@H](O[C@H]3O[C@H](CO)[C@@H](O)[C@H](O)[C@H]3NC(C)=O)[C@H](O)[C@H]2OS(=O)(=O)O)[C@@H]1O (stereo partly specified)
- IC50: 5 nM

Source: BindingDB's records for doi:10.1021/acs.jmedchem.8b01497 ("Sapienza" Universit&#163, 2018)
